ChEMBL document CHEMBL1142118, “Halogenated monoterpene aldehydes from the South African marine alga Plocamium corallorhiza” (J Nat Prod, 2007)

Assay: Cytotoxicity against WHCO1 cells after 48 hrs by MTT assay
Assay type: cell-based
Details: Homo sapiens, WHCO1, 48 h

Compound	IC50 [µM]
CC(/C=C/C(Cl)C(C)(Cl)CBr)=C\C=O (configuration not stated)	64.8
C=C(C)C(Br)CC(Br)/C(C)=C/C=O (configuration not stated)	7.5
